Counter-ions that a name gives are not always drawn. Like-named read-outs stand apart in the source and are kept apart here.

Assay [1] relates to EVSA-T (human breast carcinoma). Nature of the assay: Anti-proliferative activity, Alamar Blue assay, EVSA-T. It counts as cell-based. As to conditions: Homo sapiens, EVSA-T, read-out: EVSA-T prolif (EC50).
Assay [2] addresses BIR3 domain of human XIAP (residues 252-350) (Homo sapiens (Human), UniProt P98170). Nature of the assay: XIAP in vitro competitive displacement binding assay (fluorescence polarization). As to conditions: for IC50: read-out: IC50 or PI Xiap: IC50; for inhibition at 0.04 µM: 1 h, read-out: IC50 or PI Xiap: PI.
Assay [3] concerns the target BIR3 domain of human cIAP-1 (residues 267-363) (Homo sapiens (Human), UniProt Q13490). Briefly: cIAP-1 in vitro competitive displacement binding assay (fluorescence polarization; Probe A AVPIK(5&6FAM)-amide or Probe B AbuRPFK(5&6FAM)-amide). As to conditions: 3 h, read-out: IC50 or PI cIAP1: PI.

As for `C[C@@H]1CN(CC(=O)N2CC(C)(C)c3ncc(Cc4ccc(F)cc4F)cc32)[C@@H](CN2CCOCC2)CN1` [Example 236, 1-{6-[(2,4-Difluorophenyl)methyl]-3,3-dimethyl-1H,2H,3H-pyrrolo[3,2-b]pyridin-1-yl}-2-[(2R,5R)-5-methyl-2-(morpholin-4-ylmethyl)piperazin-1-yl]ethan-1-one dihydrochloride], the EC50 in assay [1] (72 h) was 7.8 nM. Also, the IC50 in assay [2] amounted to 58 nM. Also, the inhibition at […] in assay [3] was 96%.
Take `C[C@@H]1CN(CC(=O)N2CC(C)(C)c3cnc(Cc4ccc(F)cc4)cc32)[C@@H](CN2CCOCC2)CN1` [Example 237, 1-{6-[(4-Fluorophenyl)methyl]-3,3-dimethyl-1H,2H,3H-pyrrolo[3,2-c]pyridin-1-yl}-2-[(2R,5R)-5-methyl-2-(morpholin-4-ylmethyl)piperazin-1-yl]ethan-1-one hydrochloride]: the EC50 in assay [1] (72 hours, Alamar Blue) was found to be 4.6 nM. Also, the IC50 in assay [2] was 55 nM. The inhibition at […] in assay [3] (Probe B, @ 0.012 μM) came to 97%.
Turning to `CCCC(F)(F)c1cc2c(cn1)C(C)(C)CN2C(=O)CN1C[C@@H](C)NC[C@@H]1CN1CCOCC1` [Example 239, 1-[6-(1,1-Difluorobutyl)-3,3-dimethyl-1H,2H,3H-pyrrolo[3,2-c]pyridin-1-yl]-2-[(2R,5R)-5-methyl-2-(morpholin-4-ylmethyl)piperazin-1-yl]ethan-1-one hydrochloride], the EC50 in assay [1] (72 hours, Alamar Blue) was 32 nM. In addition, in assay [2], the inhibition at 0.04 µM was 52%. Besides, the inhibition at […] in assay [3] (Probe B, @ 0.012 μM) was 72%.
On to `C[C@@H]1CN(CC(=O)N2CC(C)(C)c3cnc(Cc4ccccc4F)cc32)[C@@H](CN2CCCC2=O)CN1` [Example 242, 1-{[(2R,5R)-1-(2-{6-[(2-Fluorophenyl)methyl]-3,3-dimethyl-1H,2H,3H-pyrrolo[3,2-c]pyridin-1-yl}-2-oxoethyl)-5-methylpiperazin-2-yl]methyl}pyrrolidin-2-one hydrochloride], for which the EC50 in assay [1] (72 hours, Alamar Blue) stood at 13 nM. For the same compound, the inhibition at 0.04 µM in assay [2] stood at 65%. In addition, the inhibition at […] in assay [3] (Probe B, @ 0.012 μM) is 92%.
For the compound `C[C@@H]1CN(CC(=O)N2CC(C)(C)c3ncc(Cc4ccc(F)cc4)cc32)[C@@H](CN2C[C@@H](C)O[C@@H](C)C2)CN1` [Example 243, 2-[(2R,5R)-2-{[(2R,6S)-2,6-Dimethylmorpholin-4-yl]methyl}-5-methylpiperazin-1-yl]-1-{6-[(4-fluorophenyl)methyl]-3,3-dimethyl-1H,2H,3H-pyrrolo[3,2-b]pyridin-1-yl}ethan-1-one dihydrochloride], the EC50 in assay [1] (72 h) amounted to 25 nM. The IC50 in assay [2] was 47 nM. Also, the inhibition at […] in assay [3] is 100%.
On to `C[C@@H]1CN(CC(=O)N2CC(C)(C)c3cnc(Cc4ccccc4F)cc32)[C@@H](CN2CCOC[C@H]2C)CN1` [Example 244, 1-{6-[(2-Fluorophenyl)methyl]-3,3-dimethyl-1H,2H,3H-pyrrolo[3,2-c]pyridin-1-yl}-2-[(2R,5R)-5-methyl-2-{[(3R)-3-methylmorpholin-4-yl]methyl}piperazin-1-yl]ethan-1-one hydrochloride], for which the EC50 in assay [1] (72 hours, Alamar Blue) is 2.2 nM. Moreover, the inhibition at 0.04 µM in assay [2] worked out at 67%. For the same compound, the inhibition at […] in assay [3] (Probe B, @ 0.012 μM) came to 98%.
For the compound `C[C@@H]1CN(CC(=O)N2CC(C)(C)c3cnc(Cc4ccccc4F)cc32)[C@@H](CN2CCOCC2)CN1` [Example 245, 1-{6-[(2-Fluorophenyl)methyl]-3,3-dimethyl-1H,2H,3H-pyrrolo[3,2-c]pyridin-1-yl}-2-[(2R,5R)-5-methyl-2-(morpholin-4-ylmethyl)piperazin-1-yl]ethan-1-one hydrochloride], the EC50 in assay [1] (72 hours, Alamar Blue) was found to be 4.2 nM. Besides, the IC50 in assay [2] came to 47 nM. Further, the inhibition at […] in assay [3] (Probe B, @ 0.012 μM) turned out to be 86%.
For `CCCC(F)(F)c1cnc2c(c1)N(C(=O)CN1C[C@@H](C)NC[C@@H]1CN1C[C@@H](C)O[C@@H](C)C1)CC2(C)C` [Example 246, 1-[6-(1,1-Difluorobutyl)-3,3-dimethyl-1H,2H,3H-pyrrolo[3,2-b]pyridin-1-yl]-2-[(2R,5R)-2-{[(2R,6S)-2,6-dimethylmorpholin-4-yl]methyl}-5-methylpiperazin-1-yl]ethan-1-one dihydrochloride], in assay [1] (72 h), the EC50 was 31 nM. Moreover, the IC50 in assay [2] amounted to 43 nM. Also, the inhibition at […] in assay [3] turned out to be 76%.

Source of the values: patent publication US9018214B2, “Bicyclic heterocycle compounds and their uses in therapy” (Astex Therapeutics Limited, priority 2011, dated 2015).
